# Columns and labels:
# Type in all cases: cell-based, human
# [1] = test system: IMR-90 fibroblasts; assay: Induction of senescence in non-senescent cells by prostaglandins or 5-LOX pathway products (EdU, SA-B-gal, p21, immunoblot)
# Protocol: RNA was extracted from cells or tissues using commercially available kits (Isolate II—Bioline for cells; Direct-zol—Zymo for tissues) according to the manufacturer's instructions. cDNA synthesis was performed using a High Capacity cDNA Reverse Transcription Kit (Thermo Fisher) according to the manufacturer's instructions. Quantitative PCR was performed on a LightCycler 480 II (Roche) using primers and probes designed for the Universal Probe Library. Primers and probes used for human transcripts were ACTB: 5′-CCAACCGCGAGAAGATGA (SEQ ID NO:1), 5′-TCCATCACGATGCCAGTG (SEQ ID NO:2), Probe #64; TUBA: 5′-cttcgtctccgccatcag (SEQ ID NO:3), 5′-ttgccaatctggacacca (SEQ ID NO:4), Probe #58; ALOX5: 5′-[…] (SEQ ID NO:5), 5′-[…] (SEQ ID NO:6), Probe #64; ALOX5AP: 5′-ggtctgcggggctacttt (SEQ ID NO:7), 5′-[…] (SEQ ID NO:8), Probe #18; ALOX12: 5′-[…] (SEQ ID NO:9), 5′-agccaggtcgtcaggag (SEQ ID NO:10), Probe #32; ALOX15: 5′-[…] (SEQ ID NO:11), 5′-[…] (SEQ ID NO:12), Probe #76; ALOX15B: 5′-[…] (SEQ ID NO:13), 5′-actgggaggcgaagaagg (SEQ ID NO:14), Probe #51; AKR1C1: 5′-catgcctgtcctgggattt (SEQ ID NO:15), 5′-[…] (SEQ ID NO:16), Probe #49; AKR1C2: 5′-ctatgcgcctgcagaggt (SEQ ID NO:17), 5′-[…] (SEQ ID NO:18), Probe #31; AKR1C3: 5′-[…] (SEQ ID NO:19), 5′-[…] (SEQ ID NO:20), Probe #78; CYSLTR2: 5′-[…] (SEQ ID NO:21), 5′-[…] (SEQ ID NO:22), Probe #18; DPEP1: 5′-gacgtcctgaggctggtg (SEQ ID NO:23), 5′-[…] (SEQ ID NO:24), Probe #9 (SEQ ID NO:25), ELOVL2: 5′-[…] (SEQ ID NO:26), 5′-[…] (SEQ ID NO:27), Probe #53; ELOVL4: 5′-catttggcccatggattc (SEQ ID NO:28), 5′-[…] (SEQ ID NO:29), Probe #31; ELOVL5: 5′-cccttccatgcgtccata (SEQ ID NO:30), 5′-[…] (SEQ ID NO:31), Probe #31; EPHX2: 5′-ttctgctggacaccctgaa (SEQ ID NO:32), 5′-[…] (SEQ ID NO:33), Probe #45; GPX4: 5′-ttcccgtgtaaccagttcg (SEQ ID NO:34), 5′-[…] (SEQ ID NO:35), Probe #36; LTA4H: 5′-ctgctctcacggtccagtc (SEQ ID NO:36), 5′-[…] (SEQ ID NO:37), Probe #64; LTBR2: 5′-[…] (SEQ ID NO:38), 5′-[…] (SEQ ID NO:39), Probe #33; LTC4S: 5′-[…] (SEQ ID NO:40), 5′-[…] (SEQ ID NO:41), Probe #18; PTGDS: 5′-[…] (SEQ ID NO:42), 5′-[…] (SEQ ID NO:43), Probe #36; PTGES: 5′-agagatgcctgcccacag (SEQ ID NO:44), 5′-tggccaccacgtacatctt (SEQ ID NO:45), Probe #4; PTGES2: 5′-[…] (SEQ ID NO:46), 5′-[…] (SEQ ID NO:47), Probe #49; PTGES3 (SEQ ID NO:48), 5′-[…] (SEQ ID NO:49), 5′-[…] (SEQ ID NO:50), Probe #48; PTGIS: 5′-[…] (SEQ ID NO:51), 5′-[…] (SEQ ID NO:52), Probe #45; PTGR1: 5′-atgatggggcagcaagtg (SEQ ID NO:53), 5′-cccatcagaaatggagtgc (SEQ ID NO:54), Probe #64; PTGS1: 5′-[…] (SEQ ID NO:55), 5′-gtggtggtccatgttcctg (SEQ ID NO:56), Probe #81; PTGS2: 5′-gatccccagggctcaaac (SEQ ID NO:57), 5′-[…] (SEQ ID NO:58), Probe #61; TBXAS1: 5′-[…] (SEQ ID NO:59), 5′-tgcctcccgtgtgaatct (SEQ ID NO:60), Probe #73; AREG: 5′-[…] (SEQ ID NO:61), 5′-[…] (SEQ ID NO:62), Probe #73; CCL2: 5′-AGTCTCTGCCGCCCTTCT (SEQ ID NO:63), 5′-GTGACTGGGGCATTGATTG (SEQ ID NO:64), Probe #40; CCL27: 5′-[…] (SEQ ID NO:65), 5′-gctgggtggcagtaggaat (SEQ ID NO:66), Probe #18; CXCL1: 5′-[…] (SEQ ID NO:67), 5′-[…] (SEQ ID NO:68), Probe #52; HGF: 5′-[…] (SEQ ID NO:69), 5′-[…] (SEQ ID NO:70), Probe #49; ILIA: 5′-[…] (SEQ ID NO:71), 5′-[…] (SEQ ID NO:72), Probe #6; IL1B: 5′-[…] (SEQ ID NO:73), 5′-[…] (SEQ ID NO:74), Probe #78; IL6: 5′-[…] (SEQ ID NO:75), 5′-gaaggcagcaggcaacac (SEQ ID NO:76), Probe #45; IL8: 5′-[…] (SEQ ID NO:77), 5′-atggttccttccggtggt (SEQ ID NO:78), Probe #72; IL10: 5′-[…] (SEQ ID NO:79), 5′-[…] (SEQ ID NO:80), Probe #67; MMP3: 5′-[…] (SEQ ID NO:81), 5′-[…] (SEQ ID NO:82), Probe #36; PDGFA: 5′-[…] (SEQ ID NO:83), 5′-[…] (SEQ ID NO:84), Probe #80; VEGF: 5′-[…] (SEQ ID NO:85), 5′-[…] (SEQ ID NO:86), Probe #50; P21WAF1(CDKN1A): 5′-[…]
# [2] = test system: SASP factors; assay: qPCR of SASP and PTGS mRNAs in non-senescent cells treated with eicosanoids; conditions: 10 μM
# Protocol: RNA was extracted from cells or tissues using commercially available kits (Isolate II—Bioline for cells; Direct-zol—Zymo for tissues) according to the manufacturer's instructions. cDNA synthesis was performed using a High Capacity cDNA Reverse Transcription Kit (Thermo Fisher) according to the manufacturer's instructions. Quantitative PCR was performed on a LightCycler 480 II (Roche) using primers and probes designed for the Universal Probe Library. Primers and probes used for human transcripts were ACTB: 5′-CCAACCGCGAGAAGATGA (SEQ ID NO:1), 5′-TCCATCACGATGCCAGTG (SEQ ID NO:2), Probe #64; TUBA: 5′-cttcgtctccgccatcag (SEQ ID NO:3), 5′-ttgccaatctggacacca (SEQ ID NO:4), Probe #58; ALOX5: 5′-[…] (SEQ ID NO:5), 5′-[…] (SEQ ID NO:6), Probe #64; ALOX5AP: 5′-ggtctgcggggctacttt (SEQ ID NO:7), 5′-[…] (SEQ ID NO:8), Probe #18; ALOX12: 5′-[…] (SEQ ID NO:9), 5′-agccaggtcgtcaggag (SEQ ID NO:10), Probe #32; ALOX15: 5′-[…] (SEQ ID NO:11), 5′-[…] (SEQ ID NO:12), Probe #76; ALOX15B: 5′-[…] (SEQ ID NO:13), 5′-actgggaggcgaagaagg (SEQ ID NO:14), Probe #51; AKR1C1: 5′-catgcctgtcctgggattt (SEQ ID NO:15), 5′-[…] (SEQ ID NO:16), Probe #49; AKR1C2: 5′-ctatgcgcctgcagaggt (SEQ ID NO:17), 5′-[…] (SEQ ID NO:18), Probe #31; AKR1C3: 5′-[…] (SEQ ID NO:19), 5′-[…] (SEQ ID NO:20), Probe #78; CYSLTR2: 5′-[…] (SEQ ID NO:21), 5′-[…] (SEQ ID NO:22), Probe #18; DPEP1: 5′-gacgtcctgaggctggtg (SEQ ID NO:23), 5′-[…] (SEQ ID NO:24), Probe #9 (SEQ ID NO:25), ELOVL2: 5′-[…] (SEQ ID NO:26), 5′-[…] (SEQ ID NO:27), Probe #53; ELOVL4: 5′-catttggcccatggattc (SEQ ID NO:28), 5′-[…] (SEQ ID NO:29), Probe #31; ELOVL5: 5′-cccttccatgcgtccata (SEQ ID NO:30), 5′-[…] (SEQ ID NO:31), Probe #31; EPHX2: 5′-ttctgctggacaccctgaa (SEQ ID NO:32), 5′-[…] (SEQ ID NO:33), Probe #45; GPX4: 5′-ttcccgtgtaaccagttcg (SEQ ID NO:34), 5′-[…] (SEQ ID NO:35), Probe #36; LTA4H: 5′-ctgctctcacggtccagtc (SEQ ID NO:36), 5′-[…] (SEQ ID NO:37), Probe #64; LTBR2: 5′-[…] (SEQ ID NO:38), 5′-[…] (SEQ ID NO:39), Probe #33; LTC4S: 5′-[…] (SEQ ID NO:40), 5′-[…] (SEQ ID NO:41), Probe #18; PTGDS: 5′-[…] (SEQ ID NO:42), 5′-[…] […]
# [3] = test system: IMR-90 fibroblasts depleted of p53 by shRNA; assay: Prostaglandin treatment of p53-depleted (shp53) IMR-90 fibroblasts (Ki67, cleaved caspase 3); conditions: shp53 cells, 3 days
# Protocol: For EdU labeling, cells were cultured with EdU (10 μM) for 24 h, fixed in 4% buffered formalin for 10 min, washed in PBS, and permeabilized in 0.5% Triton X-100 for 30 min. Cells were treated as instructed by the manufacturer Life Technologies Cat #C10337). For immunofluorescence, cells were blocked in 10% normal goat serum for 30 min, washed, and incubated overnight in antibodies to Ki67 (Abcam) or cleaved caspase 3 (Cell Signaling). Cell were then washed, incubated in fluorescent secondary antibodies, and mounted using vectashield mounting medium with DAPI.
# [4] = test system: IL-6 secretion; assay: IL-6 ELISA on non-senescent cells treated with prostaglandins; conditions: 10 μM, 10 days
# Protocol: Human fetal lung fibroblasts (IMR-90) were cultured in Dulbecco's modified eagle medium (DMEM) supplemented with 10% FBS and penicillin/streptomycin. LL 29 (AnHa) cells were obtained from the ATCC and growth to confluence using the ATCC protocol, but were subcultured as described for IMR-90 before initiation of all experiments. Quiescence was induced by replacing culture media with media containing 0.2% FBS. MCF-7 and MDA-MB-231 breast cancer cells were cultured in RPMI supplemented with 10% FBS and penicillin/streptomycin. All cells were cultured at 3% O2, and used between 25 and 40 population doublings. All cells were mycoplasma free.
# 3×10^4 cells in 12-well plates were treated as indicated in the text, and cultured in 0.5-1 ml serum-free DMEM for 24 hr. CM were collected and clarified at 2,000×g for 10 min. Supernatants were transferred to a tube; cells were trypsinized and counted. CM (2.5 μl) were analyzed by bead-based ELISAs (AlphaLISA, Perkin-Elmer) as instructed by the manufacturer and normalized to cell number.
Compound,"cell size and proliferation once prostaglandin was removed ([1]; 10 μM 7 days, then 10 days release)","senescence-associated beta-galactosidase ([1]; 10 μM, 10 days)",PTGES mRNA [2],apoptosis (positivity for cleaved caspase 3) [3],continued cell division (Ki67 positivity) after loss of p53 [3],"levels of LMNB1 and cellular HMGB1 ([1]; 10 μM, 10 days)","p21 gene expression ([1]; 10 μM, 10 days)","p21 protein accumulation ([1]; 10 μM, 10 days, immunoblot)","p53 stabilization ([1]; 10 μM, 10 days, immunoblot)","p53 phosphorylation or acetylation ([1]; 10 μM, 10 days, western blot)",expression of MMP3 and secretion of IL-6 on removal of the prostaglandin ([1]; release after 7 days at 10 μM),SASP factor mRNAs ([2]; for PGJ2 and 15d-PGJ2 most factors except VEGF and PDGF),IL-6 secretion [4]
"CCCCC[C@H](O)/C=C/[C@H]1[C@H](O)CC(=O)[C@@H]1C/C=C\CCCC(=O)O [PGE2, prostaglandin E2]",became smaller and resumed proliferation,induced,elevated,,,,,,,,,,
CCCCC[C@H](O)/C=C/[C@H]1C(=O)C=C[C@@H]1C/C=C\CCCC(=O)O [PGJ2],,induced,,underwent apoptosis,did not allow,reduced levels,induced,induced,stabilized,without increasing,reduced,strongly induced,highest induction

# Source: patent publication US20200371122A1, “BIOMARKER FOR SENESCENT CELLS” (Buck Institute for Research on Aging, priority 2017, published 2020)
